Results: patent US20220144848A1, “SUBSTITUTED OXOPYRIDINE DERIVATIVES” (Bayer Aktiengesellschaft, priority 2018, published 2022)

Experiments:
[1] = target: T1, human factor XIa (Homo sapiens, UniProt P03951); experiment: Measurement of FXIa inhibition (fluorogenic peptide substrate Boc-Glu(OBzl)-Ala-Arg-AMC); format: biochemical; details: factor XIa from Kordia, 15 min preincubation, 30 min at 22° C., fluorescence; some as mean values from multiple determinations
T1 construct: purchased Kordia
Experimental: (§1) The factor XIa inhibition of the substances according to the invention is determined using a biochemical test system which utilizes the reaction of a peptidic factor XIa substrate to determine the enzymatic activity of human factor XIa. Here, factor XIa cleaves from the peptidic factor XIa substrate the C-terminal aminomethylcoumarin (AMC), the fluorescence of which is measured. The determinations are carried out in microtitre plates.
Test substances are dissolved in dimethyl sulfoxide and serially diluted in dimethyl sulfoxide (3000 μM to 0.0078 μM; resulting final concentrations in the test: 50 μM to 0.00013 μM). In each case 1 μl of the diluted substance solutions is placed into the wells of white microtitre plates from Greiner (384 wells). 20 μl of assay buffer (50 mM of Tris/HCl pH 7.4; 100 mM of sodium chloride; 5 mM of calcium chloride; 0.1% of bovine serum albumin) and 20 μl of factor XIa from Kordia (0.45 nM in assay buffer) are then added successively. After 15 min of incubation, the enzyme reaction is started by addition of 20 μl of the factor XIa substrate Boc-Glu(OBzl)-Ala-Arg-AMC dissolved in assay buffer (10 μM in assay buffer) from Bachem, the mixture is incubated at room temperature (22° C.) for 30 min and fluorescence is then measured (excitation: 360 nm, emission: 460 nm). The measured emissions of the test batches with test substance are compared to those of control batches without test substance (only dimethyl sulfoxide instead of test substance in dimethyl sulfoxide), and IC50 values are calculated from the concentration/activity relationships.

[2] = target: T2, human plasma kallikrein (Homo sapiens, UniProt P03952); experiment: Determination of the plasma kallikrein activity (fluorogenic peptide substrate H-Pro-Phe-Arg-AMC); format: biochemical; details: plasma kallikrein from Kordia, 15 min preincubation, 30 min at 22° C., fluorescence; some as mean values from multiple determinations
T2 construct: purchased Kordia
Experimental: as §1, with “To determine the plasma kallikrein” for “The factor XIa”, “invention,” for “invention is determined using”, “system is used” for “system”, “plasma kallikrein” for “factor XIa”, “plasma kallikrein.” for “factor XIa.”
Test substances are dissolved in dimethyl sulfoxide and serially diluted in dimethyl sulfoxide (3000 μM to 0.0078 μM; resulting final concentrations in the test: 50 μM to 0.00013 μM). In each case 1 μl of the diluted substance solutions is placed into the wells of white microtitre plates from Greiner (384 wells). 20 μl of assay buffer (50 mM Tris/HCl pH 7.4; 100 mM sodium chloride solution; 5 mM of calcium chloride solution; 0.1% of bovine serum albumin) and 20 μl of plasma kallikrein from Kordia (0.6 nM in assay buffer) are then added successively. After 15 min of incubation, the enzyme reaction is started by addition of 20 μl of the substrate H-Pro-Phe-Arg-AMC dissolved in assay buffer (10 μM in assay buffer) from Bachem, the mixture is incubated at room temperature (22° C.) for 30 min and fluorescence is then measured (excitation: 360 nm, emission: 460 nm). The measured emissions of the test batches with test substance are compared to those of control batches without test substance (only dimethyl sulfoxide instead of test substance in dimethyl sulfoxide), and IC50 values are calculated from the concentration/activity relationships. Activity data from this test are listed in Table B below (some as mean values from multiple independent individual determinations): […]

T2 sequence (P03952 391-638 limits assumed): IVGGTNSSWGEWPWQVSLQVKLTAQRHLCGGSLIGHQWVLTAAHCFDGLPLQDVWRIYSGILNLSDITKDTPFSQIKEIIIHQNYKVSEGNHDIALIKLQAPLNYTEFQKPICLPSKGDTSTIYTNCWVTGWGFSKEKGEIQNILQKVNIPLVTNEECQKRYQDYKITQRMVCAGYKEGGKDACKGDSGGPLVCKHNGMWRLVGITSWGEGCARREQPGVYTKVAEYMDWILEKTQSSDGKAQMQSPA
T2 sequence (P03952 20-390 partner limits assumed): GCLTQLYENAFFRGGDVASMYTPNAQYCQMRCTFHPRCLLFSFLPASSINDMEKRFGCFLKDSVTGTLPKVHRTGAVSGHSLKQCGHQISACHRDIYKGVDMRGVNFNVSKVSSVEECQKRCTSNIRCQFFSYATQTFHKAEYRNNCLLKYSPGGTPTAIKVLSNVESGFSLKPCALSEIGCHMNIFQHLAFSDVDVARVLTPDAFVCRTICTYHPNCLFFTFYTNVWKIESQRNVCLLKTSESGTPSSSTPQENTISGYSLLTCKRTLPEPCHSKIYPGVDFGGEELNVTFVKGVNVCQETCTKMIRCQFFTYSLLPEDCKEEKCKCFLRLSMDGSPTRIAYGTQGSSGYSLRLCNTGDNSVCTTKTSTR
T1 sequence (P03951 388-625 limits assumed): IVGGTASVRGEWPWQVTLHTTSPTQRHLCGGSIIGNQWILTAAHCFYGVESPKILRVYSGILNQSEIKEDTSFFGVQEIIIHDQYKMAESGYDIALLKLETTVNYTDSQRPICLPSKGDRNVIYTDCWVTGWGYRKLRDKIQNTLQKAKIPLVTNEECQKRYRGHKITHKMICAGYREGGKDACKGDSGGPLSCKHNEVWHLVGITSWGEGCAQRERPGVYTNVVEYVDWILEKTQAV
T1 sequence (P03951 19-387 partner limits assumed): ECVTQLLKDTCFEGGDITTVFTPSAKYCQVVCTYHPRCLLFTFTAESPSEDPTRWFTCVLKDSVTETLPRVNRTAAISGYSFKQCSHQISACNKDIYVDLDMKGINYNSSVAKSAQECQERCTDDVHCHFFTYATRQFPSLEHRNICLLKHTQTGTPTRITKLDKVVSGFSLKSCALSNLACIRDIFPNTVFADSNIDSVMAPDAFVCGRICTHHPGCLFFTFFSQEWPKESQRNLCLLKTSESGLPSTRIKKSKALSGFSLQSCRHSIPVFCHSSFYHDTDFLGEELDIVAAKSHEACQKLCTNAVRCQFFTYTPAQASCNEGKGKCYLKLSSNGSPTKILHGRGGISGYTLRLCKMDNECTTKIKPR

Row | SMILES | IC50 [1] | IC50 [2]
1 | CC1Cc2ccc(Cl)cc2-c2cc(=O)n(C(C[C@@H]3CCCCO3)C(=O)Nc3ccc(C(N)=O)nc3)cc2CO1 (mixture of isomers) [Example 3, 5-{2-(11-Chloro-7-methyl-2-oxo-7,8-dihydro-2H-[3]benzoxocino[5,6-c]pyridin-3(5H)-yl)-3-[(2S)-tetrahydro-2H-pyran-2-yl]propanamido}pyridine-2-carboxamide] | 0.006 µM | 0.51 µM
2 | CC1Cc2ccc(Cl)cc2-c2cc(=O)n(C(C[C@@H]3CCCCO3)C(=O)Nc3ccc(C(N)=O)cc3)cc2CO1 (mixture of isomers) [Example 5, 4-({2-(11-Chloro-7-methyl-2-oxo-7,8-dihydro-2H-[3]benzoxocino[5,6-c]pyridin-3(5H)-yl)-3-[(2S)-tetrahydro-2H-pyran-2-yl]propanoyl}amino)benzamide] | 0.0043 µM | 0.4 µM
3 | CC1Cc2ccc(Cl)cc2-c2cc(=O)n(C(C[C@@H]3COCCO3)C(=O)Nc3ccc(C(N)=O)c(F)c3)cc2CO1 (mixture of isomers) [Example 7, 4-({2-(11-Chloro-7-methyl-2-oxo-7,8-dihydro-2H-[3]benzoxocino[5,6-c]pyridin-3(5H)-yl)-3-[(2R)-1,4-dioxan-2-yl]propanoyl}amino)-2-fluorobenzamide] | 0.014 µM | 0.78 µM
4 | CC1Cc2ccc(Cl)cc2-c2cc(=O)n(C(C[C@@H]3COCCO3)C(=O)Nc3ccc(C(N)=O)cc3)cc2CO1 (mixture of isomers) [Example 9, 4-({2-(11-Chloro-7-methyl-2-oxo-7,8-dihydro-2H-[3]benzoxocino[5,6-c]pyridin-3(5H)-yl)-3-[(2R)-1,4-dioxan-2-yl]propanoyl}amino)benzamide] | 0.0045 µM | 0.26 µM
5 | CC1Cc2ccc(Cl)cc2-c2cc(=O)n(C(C[C@@H]3COCCO3)C(=O)Nc3ccc4nn(C)nc4c3)cc2CO1 (mixture of isomers) [Example 11, 2-(11-Chloro-7-methyl-2-oxo-7,8-dihydro-2H-[3]benzoxocino[5,6-c]pyridin-3(5H)-yl)-3-[(2R)-1,4-dioxan-2-yl]-N-(2-methyl-2H-benzotriazol-5-yl)propanamide] | 0.019 µM | 0.19 µM
6 | C[C@@H]1Cc2ccc(Cl)cc2-c2cc(=O)n(C(CCOC(F)F)C(=O)Nc3ccc(C(N)=O)cc3)cc2CO1 (mixture of isomers) [Example 16, 4-{2-[(7R)-11-Chlor-7-methyl-2-oxo-7,8-dihydro-2H-[3]benzoxocino[5,6-c]pyridin-3(5H)-yl]-4-(difluoromethoxy)butanamido}benzamide] | 0.0035 µM | 0.11 µM
7 | C[C@@H]1Cc2ccc(Cl)cc2-c2cc(=O)n(C(C[C@H](C)OC(F)F)C(=O)Nc3ccc(C(N)=O)cc3)cc2CO1 (mixture of isomers) [Example 18, 4-{[(4S)-2-[(7R)-11-Chloro-7-methyl-2-oxo-7,8-dihydro-2H-[3]benzoxocino[5,6-c]pyridin-3(5H)-yl]-4-(difluoromethoxy)pentanoyl]amino}benzamide] | 0.0037 µM | 0.14 µM
8 | CC1Cc2ccc(Cl)cc2-c2cc(=O)n(C(CCOC(C)(C)C)C(=O)Nc3ccc(C(N)=O)c(F)c3)cc2CO1 (mixture of isomers) [Example 21, 4-{[4-tert-Butoxy-2-(11-chloro-7-methyl-2-oxo-7,8-dihydro-2H-[3]benzoxocino[5,6-c]pyridin-3(5H)-yl)butanoyl]amino}-2-fluorobenzamide] | 0.063 µM | 0.83 µM
9 | CC1Cc2ccc(Cl)cc2-c2cc(=O)n(C(CCOC(C)(C)C)C(=O)Nc3ccc(C(N)=O)cc3)cc2CO1 (mixture of isomers) [Example 23, 4-{[4-tert-Butoxy-2-(11-chloro-7-methyl-2-oxo-7,8-dihydro-2H-[3]benzoxocino[5,6-c]pyridin-3(5H)-yl)butanoyl]amino}benzamide] | 0.022 µM | 0.41 µM
10 | CC[C@@H]1Cc2ccc(Cl)cc2-c2cc(=O)n(C(C[C@@H]3CCCCO3)C(=O)Nc3ccc(C(N)=O)c(F)c3)cc2CO1 (mixture of isomers) [Example 30, 4-{2-[(7R)-11-Chloro-7-ethyl-2-oxo-7,8-dihydro-2H-[3]benzoxocino[5,6-c]pyridin-3(5H)-yl]-3-[(2S)-tetrahydro-2H-pyran-2-yl]propanamido}-2-fluorobenzamide] | 0.025 µM | 1.3 µM
11 | NC(=O)c1ccc(NC(=O)C(C[C@@H]2CCCCO2)n2cc3c(cc2=O)-c2cc(Cl)ccc2CC(CO)OC3)cc1F (mixture of isomers) [Example 32, 4-{2-[11-Chloro-7-(hydroxymethyl)-2-oxo-7,8-dihydro-2H-[3]benzoxocino[5,6-c]pyridin-3(5H)-yl]-3-[(2S)-tetrahydro-2H-pyran-2-yl]propanamido}-2-fluorobenzamide] | 0.03 µM | 1.3 µM
12 | NC(=O)c1ccc(NC(=O)C(C[C@@H]2CCCCO2)n2cc3c(cc2=O)-c2cc(Cl)ccc2CC(CO)OC3)cc1 (mixture of isomers) [Example 34, 4-{2-[11-Chloro-7-(hydroxymethyl)-2-oxo-7,8-dihydro-2H-[3]benzoxocino[5,6-c]pyridin-3(5H)-yl]-3-[(2S)-tetrahydro-2H-pyran-2-yl]propanamido}benzamide] | 0.0069 µM | 0.49 µM
13 | NC(=O)c1ccc(NC(=O)C(C[C@@H]2COCCO2)n2cc3c(cc2=O)-c2cc(Cl)ccc2CC(CO)OC3)cc1 (mixture of isomers) [Example 36, 4-{2-[11-Chloro-7-(hydroxymethyl)-2-oxo-7,8-dihydro-2H-[3]benzoxocino[5,6-c]pyridin-3(5H)-yl]-3-[(2R)-1,4-dioxan-2-yl]propanamido}benzamide] | 0.012 µM | 1 µM
14 | CC(C)C1Cc2ccc(Cl)cc2-c2cc(=O)n(C(C[C@@H]3COCCO3)C(=O)Nc3ccc(C(N)=O)c(F)c3)cc2CO1 (mixture of isomers) [Example 40, 4-({2-(11-Chloro-7-isopropyl-2-oxo-7,8-dihydro-2H-[3]benzoxocino[5,6-c]pyridin-3(5H)-yl)-3-[(2R)-1,4-dioxan-2-yl]propanoyl}amino)-2-fluorobenzamide] | 0.041 µM | 4.8 µM
15 | CC(C)C1Cc2ccc(Cl)cc2-c2cc(=O)n(C(C[C@@H]3COCCO3)C(=O)Nc3ccc(C(N)=O)cc3)cc2CO1 (mixture of isomers) [Example 42, 4-({2-(11-Chloro-7-isopropyl-2-oxo-7,8-dihydro-2H-[3]benzoxocino[5,6-c]pyridin-3(5H)-yl)-3-[(2R)-1,4-dioxan-2-yl]propanoyl}amino)benzamide] | 0.0036 µM | 0.81 µM
16 | CC(C)C1Cc2ccc(Cl)cc2-c2cc(=O)n(C(C[C@@H]3COCCO3)C(=O)Nc3ccc4nn(C)nc4c3)cc2CO1 (mixture of isomers) [Example 44, 2-(11-Chloro-7-isopropyl-2-oxo-7,8-dihydro-2H-[3]benzoxocino[5,6-c]pyridin-3(5H)-yl)-3-[(2R)-1,4-dioxan-2-yl]-N-(2-methyl-2H-benzotriazol-5-yl)propanamide] | 0.049 µM | 1.6 µM
17 | CC[C@@H](C(=O)Nc1ccc(C(N)=O)c(F)c1)n1cc2c(cc1=O)-c1cc(Cl)ccc1CC(C(F)F)OC2 (mixture of isomers) [Example 46, 4-({(2S)-2-[11-Chloro-7-(difluoromethyl)-2-oxo-7,8-dihydro-2H-[3]benzoxocino[5,6-c]pyridin-3(5H)-yl]butanoyl}amino)-2-fluorobenzamide] | 0.11 µM | 2.3 µM
18 | CC(C)[C@@H]1Cc2ccc(Cl)cc2-c2cc(=O)n([C@@H](C[C@@H]3CCCCO3)C(=O)Nc3ccc(C(N)=O)c(F)c3)cc2CO1 (single isomer, unassigned) [Example 39] |  | 2 µM
